# Measured values as given in patent US8680137B2, “Agents and methods for treating ischemic and other diseases” (Nono Inc., priority 2009, dated 2014).
# “Also recorded” adds a separate entry of the source. Like-named read-outs stand apart in the source and are kept apart here.
# What was measured:
# [1] = system: retinal ganglion cells (RGCs); assay: OGD in cultured primary retinal ganglion cells, PI fluorescence; assay type: cell-based, rat; conditions: 5 μM, 24 hours after 3 hour OGD
# Description: Acute and chronic retinal ischemia are major causes of blindness. Retinal damage from glaucoma, also termed “slow excitotoxicity” afflicts millions of people each year and is the second leading cause of blindness worldwide (after cataracts). Diabetic retinopathy is also very common, afflicting about 40% of diabetics and, while less commonly producing complete blindness, is a leading cause of visual impairment. The retina is an extension of the CNS, and was the first organ in which excitotoxicity was described. This invention discloses TPRM7 antagonists that can inhibit anoxic retinal damage. To examine this, we cultured primary retinal ganglion cells (RGCs) and organotypic whole retinas from neonatal rat pups by standard methods and exposed them to OGD (1 or 3 hours). […] This underscores our earlier discussion that inhibiting TRPM7 is a ubiquitous mechanism for the reduction of ischemic damage.
# [2] = system: MCF-7 breast cancer cells; assay: Cancer cell proliferation, MCF-7; assay type: cell-based; conditions: for proliferation: MCF-7, FIG. 80; for Demonstrated Reduction of Proliferation at or below 10 μM Inhibitor concentration: MCF-7, >20% inhibition at 48-96 hours, MTT, SRB, luminescence or BrDU
# Procedure: (§1) To determine the breadth of efficacy in cancers, we examined the efficacy of a range of TRPM7 inhibitors for their ability to inhibit cell proliferation in cancer cell lines. Representative figures are included as examples.
# (§2) Cells (Table 1) were grown to 70% confluency, trypsinized, counted, and seeded in 96-well flat-bottom plates at a final concentration of 2.5×10^3-5.0×10^3 cells/well in growth media containing 5% FBS (Day 0). Other well sizes and cell densities were used successfully as well. Cells were allowed to incubate in growth media for 24 hours to allow for maximum adhesion. Treatment with the test agent began on Day 1 and continued for 72 hours either with or without retreatment. At the 72 hour time point, viable cell numbers are quantified by the CellTiter-Glo® cell viability assay as described above, or using standard MTT, SRB or BrDU assays. Experiments were repeated at least twice with the same concentrations to determine growth inhibitory activity.
# (§3) Data Collection—For the cell proliferation studies, data from each experiment was collected and expressed as % Cell Growth using the following calculation: % Cell Growth=(ftest/fvehicle)×100 Where ftest is the luminescent signal of the tested sample, and fvehicle is the luminescence of the vehicle in which the drug is dissolved (or appropriate measure for the other viability/proliferation measures). Dose response graphs and IC50 values were generated using standard software using the following variable slope equation: […]
# [3] = system: MDA-MB231 breast cancer cells; assay: Cancer cell proliferation, MDA-MB231; assay type: cell-based; conditions: MDA-MB231, FIG. 80
# Procedure: as §1, §2
# as §3, with “measures).” for “measures). Dose response graphs and IC50 values were generated using standard software using the following variable slope equation:”
# [4] = system: B16F1 melanoma cells; assay: Cancer cell proliferation, B16F1; assay type: cell-based, mouse; conditions: B16F1, FIG. 81
# Procedure: as §1, §2
# as §3, with “measures).” for “measures). Dose response graphs and IC50 values were generated using standard software using the following variable slope equation:”
# [5] = system: B16F10 melanoma cells; assay: Cancer cell proliferation, B16F10; assay type: cell-based, mouse; conditions: for proliferation: B16F10, FIG. 81; for Demonstrated Reduction of Proliferation at or below 10 μM Inhibitor concentration: B16F10, >20% inhibition at 48-96 hours, MTT, SRB, luminescence or BrDU; for IC50: Mus musculus
# Procedure: as §1, §2, §3
# [6] = system: U2OS osteosarcoma; assay: Cancer cell proliferation, U2OS; assay type: cell-based; conditions: >20% inhibition at 48-96 hours, MTT, SRB, luminescence or BrDU
# Procedure: as §1, §2
# as §3, with “measures).” for “measures). Dose response graphs and IC50 values were generated using standard software using the following variable slope equation:”
# [7] = system: DMS53 Lung cancer; assay: Cancer cell proliferation, DMS53; assay type: cell-based; conditions: >20% inhibition at 48-96 hours, MTT, SRB, luminescence or BrDU
# Procedure: as §1, §2
# as §3, with “measures).” for “measures). Dose response graphs and IC50 values were generated using standard software using the following variable slope equation:”
# [8] = system: NIH3T3 fibroblasts; assay: Toxicity on NIH3T3 fibroblast cells, PI uptake after 72 hours; assay type: cell-based; conditions: concentrations that reduce proliferation of cancerous cells
# Procedure: (§4) To differentiate between an anti-proliferative effect of the TRPM7 inhibitors and cellular toxicity, the compounds were added to various ‘non-cancerous’ cell lines at the same concentrations and the percentage of PI uptake was measured after 72 hours.
# [9] = system: voltage-sensitive Na+ currents; assay: Voltage-sensitive Na+ currents in cultured cortical neurons; assay type: cell-based; conditions: at concentrations sufficient to inhibit TRPM7
# Procedure: (§5) To examine selectivity of a subset of these TRPM7 inhibitors, experiments were performed to determine whether TRPM7 antagonists cross-react with other ionic channels and receptors. […] From a therapeutic perspective, knowledge of cross-reactivity of candidate drugs could shed light on other ischemic mechanisms and raise awareness of potential side effects. M21 has no effect on voltage-sensitive Na+, and Ca2+ currents in cultured cortical neurons […] TRPM7-expressing HEK293 cells, but inhibits K+ currents by about 20% at membrane potentials of −10 mV. M21 had no effect on agonist-induced Ca2+ changes in HEK293 cells transfected with constructs for TRPM2, TRPM4, TRPM6, TRPV1, TRPC2 and TRPA1. M21 also has no effect on NMDA and AMPA receptor currents in cultured neurons. […] Similar experiments were performed with other TRPM7 inhibitors including M5 and M11.
# [10] = system: voltage-sensitive Ca2+ currents; assay: Voltage-sensitive Ca2+ currents in cultured cortical neurons; assay type: cell-based; conditions: at concentrations sufficient to inhibit TRPM7
# Procedure: as §5
# [11] = system: K+ currents; assay: K+ currents in cultured cortical neurons; assay type: cell-based
# Procedure: as §5
# [12] = system: mixed retinal cell cultures; assay: OGD in dissociated mixed rat retinal cultures; assay type: cell-based
# Procedure: (§6) The ability of TRPM7 inhibitors to protect other types of cell cultures following exposure to anoxia, including non-neuronal cell cultures, has also been tested. In general, cultures of growing cells are exposed to a 1-6 hour period of anoxia, followed by addition of a TRPM7 at a range of concentrations upon removal from anoxic conditions. […] This implies that TRPM7 inhibitors may be useful both as a treatment for anoxic damage to patients presenting symptoms of a disorder associated with anoxic damage, or as a preventative measure. Such preventative measures can be chronic, such as treatment to protect against damage from heart attacks or strokes, or acute, to be given prior to or during surgical procedures, which may include but not be limited to procedures that involve endovascular invasion and have the possibility of dislodging material that may block blood flow through arteries. […]
# [13] = system: H9c2 cardiomyocytes; assay: Toxicity on H9c2 cardiomyocytes, PI uptake after 72 hours; assay type: cell-based, rat
# Procedure: as §4
# [14] = target: T1, TRPM2 (Homo sapiens, UniProt O94759); assay: Agonist-induced Ca2+ changes in HEK293 cells transfected with TRPM2; assay type: cell-based
# T1 construct: expressed in transfected cells; host or cells: HEK293
# T1 sequence (O94759 whole entry): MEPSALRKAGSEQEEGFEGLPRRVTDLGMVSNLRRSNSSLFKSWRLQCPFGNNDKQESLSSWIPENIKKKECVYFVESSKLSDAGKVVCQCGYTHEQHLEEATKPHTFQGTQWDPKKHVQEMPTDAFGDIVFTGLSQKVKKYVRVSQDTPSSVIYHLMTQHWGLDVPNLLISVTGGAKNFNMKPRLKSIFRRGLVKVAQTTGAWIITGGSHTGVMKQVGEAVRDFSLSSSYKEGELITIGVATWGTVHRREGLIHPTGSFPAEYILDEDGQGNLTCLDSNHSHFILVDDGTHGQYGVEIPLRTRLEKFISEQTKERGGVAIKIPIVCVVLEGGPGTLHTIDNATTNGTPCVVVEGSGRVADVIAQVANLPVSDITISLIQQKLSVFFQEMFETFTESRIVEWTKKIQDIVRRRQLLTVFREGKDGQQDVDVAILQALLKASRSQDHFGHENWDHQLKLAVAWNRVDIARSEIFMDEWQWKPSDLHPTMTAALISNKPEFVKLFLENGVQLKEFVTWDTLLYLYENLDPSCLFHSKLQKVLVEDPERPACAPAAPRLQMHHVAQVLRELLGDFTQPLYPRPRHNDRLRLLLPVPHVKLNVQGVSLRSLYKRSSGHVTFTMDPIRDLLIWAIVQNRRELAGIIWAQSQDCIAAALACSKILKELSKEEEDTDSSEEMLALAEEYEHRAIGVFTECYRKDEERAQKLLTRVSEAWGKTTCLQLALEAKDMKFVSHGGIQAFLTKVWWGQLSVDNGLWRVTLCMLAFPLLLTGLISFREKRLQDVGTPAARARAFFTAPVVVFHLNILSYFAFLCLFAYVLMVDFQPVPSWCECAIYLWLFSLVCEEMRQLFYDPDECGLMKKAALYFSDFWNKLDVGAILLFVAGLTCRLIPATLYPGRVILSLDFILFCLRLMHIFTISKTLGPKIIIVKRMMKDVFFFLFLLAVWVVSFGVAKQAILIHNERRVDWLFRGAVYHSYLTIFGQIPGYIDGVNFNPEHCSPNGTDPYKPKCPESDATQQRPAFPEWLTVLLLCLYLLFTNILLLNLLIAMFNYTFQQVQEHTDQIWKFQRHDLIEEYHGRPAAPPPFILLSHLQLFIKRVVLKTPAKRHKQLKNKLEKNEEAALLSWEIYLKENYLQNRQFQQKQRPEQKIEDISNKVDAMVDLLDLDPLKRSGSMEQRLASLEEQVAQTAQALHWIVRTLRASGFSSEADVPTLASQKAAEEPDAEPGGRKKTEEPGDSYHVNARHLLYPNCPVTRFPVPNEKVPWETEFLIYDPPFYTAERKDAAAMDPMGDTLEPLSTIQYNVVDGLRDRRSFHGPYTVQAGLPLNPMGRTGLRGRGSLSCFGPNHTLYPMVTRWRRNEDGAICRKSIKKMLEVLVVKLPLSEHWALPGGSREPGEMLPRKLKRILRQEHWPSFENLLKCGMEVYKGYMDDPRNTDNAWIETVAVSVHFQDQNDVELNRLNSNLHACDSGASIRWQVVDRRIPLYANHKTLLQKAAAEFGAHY
# Procedure: as §5
# [15] = target: T2, TRPM4 (Homo sapiens, UniProt Q8TD43); assay: Agonist-induced Ca2+ changes in HEK293 cells transfected with TRPM4; assay type: cell-based
# T2 construct: expressed in transfected cells; host or cells: HEK293
# T2 sequence (Q8TD43 whole entry, species assumed): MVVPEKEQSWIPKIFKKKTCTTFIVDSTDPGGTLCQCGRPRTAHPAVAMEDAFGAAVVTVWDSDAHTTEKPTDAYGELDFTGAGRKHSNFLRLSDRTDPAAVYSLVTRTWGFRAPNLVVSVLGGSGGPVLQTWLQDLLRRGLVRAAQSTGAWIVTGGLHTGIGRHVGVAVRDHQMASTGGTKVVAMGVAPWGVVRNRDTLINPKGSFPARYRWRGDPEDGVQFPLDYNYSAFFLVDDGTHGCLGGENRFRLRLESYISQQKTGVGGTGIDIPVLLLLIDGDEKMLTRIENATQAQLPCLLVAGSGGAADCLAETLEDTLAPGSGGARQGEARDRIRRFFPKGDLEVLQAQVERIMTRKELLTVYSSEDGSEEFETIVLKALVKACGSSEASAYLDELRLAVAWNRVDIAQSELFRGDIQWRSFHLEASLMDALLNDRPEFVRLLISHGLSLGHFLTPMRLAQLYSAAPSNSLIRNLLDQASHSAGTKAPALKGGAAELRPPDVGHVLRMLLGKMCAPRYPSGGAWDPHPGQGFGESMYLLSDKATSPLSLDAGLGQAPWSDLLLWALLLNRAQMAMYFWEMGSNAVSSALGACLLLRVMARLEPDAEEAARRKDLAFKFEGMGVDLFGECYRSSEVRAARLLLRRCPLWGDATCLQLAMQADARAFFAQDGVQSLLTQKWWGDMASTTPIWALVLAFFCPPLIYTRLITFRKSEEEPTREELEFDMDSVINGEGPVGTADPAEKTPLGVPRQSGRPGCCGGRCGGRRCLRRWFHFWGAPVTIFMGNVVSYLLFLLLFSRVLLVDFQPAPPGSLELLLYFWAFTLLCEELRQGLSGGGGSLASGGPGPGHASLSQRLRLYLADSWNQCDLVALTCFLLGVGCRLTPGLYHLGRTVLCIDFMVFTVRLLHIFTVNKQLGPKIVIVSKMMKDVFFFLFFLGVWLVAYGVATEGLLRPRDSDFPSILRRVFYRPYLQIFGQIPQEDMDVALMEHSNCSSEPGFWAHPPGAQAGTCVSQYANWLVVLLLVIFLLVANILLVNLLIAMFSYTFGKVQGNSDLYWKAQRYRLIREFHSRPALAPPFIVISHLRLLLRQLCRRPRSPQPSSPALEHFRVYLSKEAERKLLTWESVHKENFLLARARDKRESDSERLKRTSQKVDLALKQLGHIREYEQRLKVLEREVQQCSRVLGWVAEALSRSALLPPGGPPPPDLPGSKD
# Procedure: as §5
# [16] = system: AML12 hepatocytes; assay: Anoxia (OGD) in AML12 hepatocyte cultures; assay type: cell-based, mouse; conditions: 2 hour, 4 hour or 6 hour anoxia
# Procedure: as §6
# [17] = target: TRPM7 (Mus musculus, UniProt Q923J1); assay: IC50 for TRPM7 (assay not stated); parameters: expressed in transfected cells; host or cells: HEK293 cells, tet-induced TRPM7
# Chain of TRPM7 (Q923J1 whole entry): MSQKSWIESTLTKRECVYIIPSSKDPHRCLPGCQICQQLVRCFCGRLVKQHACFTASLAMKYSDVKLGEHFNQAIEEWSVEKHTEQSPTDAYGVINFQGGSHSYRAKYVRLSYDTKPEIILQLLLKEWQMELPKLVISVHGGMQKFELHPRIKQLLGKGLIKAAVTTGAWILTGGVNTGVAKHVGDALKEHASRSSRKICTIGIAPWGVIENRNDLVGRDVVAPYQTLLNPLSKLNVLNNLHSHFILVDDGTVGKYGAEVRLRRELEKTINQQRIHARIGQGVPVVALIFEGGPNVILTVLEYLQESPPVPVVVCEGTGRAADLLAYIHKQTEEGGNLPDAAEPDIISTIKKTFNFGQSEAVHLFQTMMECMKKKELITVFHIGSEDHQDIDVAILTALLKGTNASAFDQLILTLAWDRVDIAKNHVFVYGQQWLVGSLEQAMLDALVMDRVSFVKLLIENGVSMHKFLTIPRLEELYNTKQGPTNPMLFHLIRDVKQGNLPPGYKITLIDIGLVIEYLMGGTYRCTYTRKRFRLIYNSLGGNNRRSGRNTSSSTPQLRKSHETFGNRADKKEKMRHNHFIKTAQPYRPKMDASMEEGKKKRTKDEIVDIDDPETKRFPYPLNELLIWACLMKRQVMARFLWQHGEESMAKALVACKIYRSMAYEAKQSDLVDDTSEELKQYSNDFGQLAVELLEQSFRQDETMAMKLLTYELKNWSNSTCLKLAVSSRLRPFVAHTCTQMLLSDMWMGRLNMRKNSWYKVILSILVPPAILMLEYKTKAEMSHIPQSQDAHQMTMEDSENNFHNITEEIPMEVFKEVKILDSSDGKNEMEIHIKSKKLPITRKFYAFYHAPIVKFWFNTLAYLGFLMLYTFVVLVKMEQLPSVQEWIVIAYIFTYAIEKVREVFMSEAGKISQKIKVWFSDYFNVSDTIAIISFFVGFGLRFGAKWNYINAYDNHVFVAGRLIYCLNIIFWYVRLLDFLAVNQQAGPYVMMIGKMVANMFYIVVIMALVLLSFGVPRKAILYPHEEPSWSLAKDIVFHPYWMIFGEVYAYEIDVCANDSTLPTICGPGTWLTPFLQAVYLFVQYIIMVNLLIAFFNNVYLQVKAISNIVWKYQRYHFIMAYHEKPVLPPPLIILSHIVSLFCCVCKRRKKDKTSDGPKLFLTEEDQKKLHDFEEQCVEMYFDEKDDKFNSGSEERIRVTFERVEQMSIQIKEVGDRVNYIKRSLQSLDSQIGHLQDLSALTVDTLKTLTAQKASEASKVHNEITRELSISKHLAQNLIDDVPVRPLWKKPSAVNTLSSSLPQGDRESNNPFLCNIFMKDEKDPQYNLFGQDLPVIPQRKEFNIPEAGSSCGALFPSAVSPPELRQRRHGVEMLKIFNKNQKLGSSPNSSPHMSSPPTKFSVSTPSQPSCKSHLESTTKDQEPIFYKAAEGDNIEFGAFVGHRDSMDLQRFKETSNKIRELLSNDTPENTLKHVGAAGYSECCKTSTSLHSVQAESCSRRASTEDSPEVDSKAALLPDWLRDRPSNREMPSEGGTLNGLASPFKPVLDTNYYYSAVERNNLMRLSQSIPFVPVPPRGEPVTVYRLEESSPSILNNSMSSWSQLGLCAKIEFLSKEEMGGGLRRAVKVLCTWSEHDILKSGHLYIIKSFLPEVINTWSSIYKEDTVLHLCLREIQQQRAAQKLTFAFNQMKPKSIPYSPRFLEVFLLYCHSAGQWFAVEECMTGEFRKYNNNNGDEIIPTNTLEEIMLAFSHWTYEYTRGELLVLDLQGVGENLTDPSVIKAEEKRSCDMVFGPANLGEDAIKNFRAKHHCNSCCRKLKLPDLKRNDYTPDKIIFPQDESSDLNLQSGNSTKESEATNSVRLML
SMILES,cytoprotection after OGD compared with U0126 or NA-1 [1],proliferation [2],Demonstrated Reduction of Proliferation at or below 10 μM Inhibitor concentration [2],proliferation [3],proliferation [4],proliferation [5],Demonstrated Reduction of Proliferation at or below 10 μM Inhibitor concentration [5],Demonstrated Reduction of Proliferation at or below 10 μM Inhibitor concentration [6],Demonstrated Reduction of Proliferation at or below 10 μM Inhibitor concentration [7],toxicity (PI uptake) [8],effect on voltage-sensitive Na+ currents [9],effect on voltage-sensitive Ca2+ currents [10],survival following exposure to OGD [12],other results
COc1cc2c(cc1OC)C(c1sc3ccccc3c1Cl)=NCC2 [Compound M6],more protective,reduce proliferation,MCF-7,reduce proliferation,reduce the proliferation,reduce the proliferation,B16F10 melanoma,U2OS osteosarcoma,DMS53 Lung cancer,not toxic; also recorded: do not show toxicity,,,,"IC50 ([5]; B16-F10, 72 h, B16-F10, Exp 1, 72 hours, read-out: IC50): 16.5 µM; IC50 ([5]; B16-F10, 72 h, B16-F10, Exp 2, 72 hours, read-out: IC50): 14.3 µM; IC50 ([5]; B16-F10, B16-F10, mean of Exp 1 and Exp 2, read-out: Mean IC50): 15.6 µM"
O=C(Nc1ccc(F)cc1)C(Sc1ccc(Cl)cc1)c1ccccc1 (stereo not shown) [Compound M11],,reduce proliferation,MCF-7,reduce proliferation,reduce the proliferation,reduce the proliferation,B16F10 melanoma,U2OS osteosarcoma,DMS53 Lung cancer,do not show toxicity,did not affect,did not affect,promote survival,effect on potassium currents [11]: slight inhibition; toxicity (PI uptake) ([13]; 5 μM): No toxicity; toxicity (PI uptake) ([13]; 10 μM): slight toxicity
Cc1c(Cc2ccc(Cl)c(Cl)c2)c(=O)oc2cc(O)ccc12 [Compound M21],more protective,,,,,,,,,,no effect,no effect,promote survival,inhibition of K+ currents ([11]; membrane potentials of −10 mV): about 20%; effect on agonist-induced Ca2+ changes [14]: no effect; effect on agonist-induced Ca2+ changes [15]: no effect; survival after anoxia [16]: can promote survival; IC50 [17]: 1 to 2 µM
